Assay results from patent US7199099B2, “Methanobactin: a copper binding compound having antibiotic and antioxidant activity isolated from methanotrophic bacteria” (priority 2002, dated 2007).
Values after ≈ are worked out from the molar mass of the structure shown.

Tests used:
[1] = system: Micrococcus luteus X186; type: cell-based
[2] = system: Candida albicans, X657; test: Antimicrobial activity, Candida albicans X657; type: cell-based; conditions: purified methanobactin
[3] = system: Escherichia coli, X161; test: Antimicrobial activity, Escherichia coli X161; type: cell-based; conditions: purified methanobactin
Procedure: (§1) Enterococcus fecalus was cultured aerobically on Brain Heart Infusion broth at 37° C., Staphyloccus aureus, Escherichia coli, X161, and Bacillus thuringiensis were cultured aerobically on Lauria-Burtani broth at 37° C., and Listeria monocytogenes was grown on Trypticase soy broth containing 0.6% yeast extract at 35° C. Minimum inhibitory concentrations were determined as previously described (A. F. Mendoca and S. J. Knabel. 1994. A novel strictly anaerobic recovery and enrichment system incorporating lithium for detection of heat-injured Listeria monocytogenes in pasteurized milk containing background microflora. Appl. Environ. Microbiol. 60: 4001–4008).

[4] = type: physicochemical
Source text: Solution properties of the methanobactin varied with metal binding and pH.

[5] = system: gram-positive bacteria; test: Bacteriocidal activity against gram-positive bacteria; type: cell-based, Staphylococci, Streptococci and Enterococci; conditions: including vancomycin resistant and methicillin-resistant strains
Procedure: as §1

[6] = system: gram-negative bacteria; test: Activity against gram-negative bacteria; type: cell-based
[7] = system: washed cell suspensions; test: Oxygen uptake activity of washed cell suspensions; type: cell-based
Procedure: Oxygen uptake activity of washed cell suspensions was determined with a Clark oxygen electrode maintained at a constant water temperature of 37° C. Cell samples containing methanobactin were preincubated 5 minutes at 37° C. before the addition of substrate.

CSCC[C@H](NC(=O)[C@@H]1CSSC[C@H](NC(=O)[C@H](CO)NC(=O)CN/C(S)=C2/N=C(C(=O)CC(C)C)OC2=O)C(=O)N[C@@H](Cc2ccc(O)cc2)C(=O)N2CCC[C@H]2C2=N/C(=C(\S)N[C@@H](CO)C(=O)N1)C(=O)O2)C(=O)O [methanobactin, N-2-isopropylester-(4-thionyl-5-hydroxy-imidazole)-Gly^1-Ser^2-Cys^3-Tyr^4-pyrrolidine-(4-thionyl-5-hydroxy-imidazole)-Ser^5-Cys^6-Met^7]
MIC [1]: 24 µg/mL (≈ 20.8 µM)
Antimicrobial Activity [2]: 0
Antimicrobial Activity [3]: 0
solubility [4]: very soluble
bacteriocidal activity against gram-positive bacteria [5]: bacteriocidal activity
effectiveness against gram-negative bacteria ([6]; methanobactin by itself): not been found to be effective
activity against gram negative bacteria in combination with a metal chelator ([6]; with EDTA, at least about 1:1 methanobactin to EDTA): bacteriocidal
effect on respiration ([7]; higher concentrations): respiratory inhibitor
effect on respiration ([7]; low concentrations): respiratory uncoupler
